Test results reported in patent US5516803A, “Composition comprising a tramadol material and a non-steroidal anti-inflammatory drug” (priority 1995, dated 1996).

Assays:
[1] = system: acetylcholine-induced abdominal constriction; experiment: prevention of acetylcholine-induced abdominal constriction in mice (analgesic activity, oral); type: in vivo, male CD1 mice
Method: […]. The mice were all dosed orally with tramadol hydrochloride (calculated as the base), which was completely dissolved in distilled water, and ibuprofen (calculated as the base), which was completely dissolved in distilled water or in distilled water containing 2% by volume of Tween 80 containing 100% polysorbate 80. The dosing volume was 10 mL/kg.
The procedure used in detecting and comparing the analgesic activity of different classes of analgesic drugs for which there is a good correlation with human efficacy is the prevention of acetylcholine-induced abdominal constriction in mice (H. Collier et al., Br. J. Pharmacol., 32, 295 (1968)).
Mice, incubated with various doses of tramadol hydrochloride alone, ibuprofen alone, combined doses of tramadol hydrochloride and ibuprofen, or vehicle such as distilled water, or distilled water containing 2% by volume of Tween 80, were injected intraperitoneally with a challenge dose of acetylcholine bromide. […]. The mice were observed 10 minutes for the presence or absence of the abdominal constriction response beginning immediately after receiving the acetylcholine dose, which was 30 minutes after receiving the oral administration of tramadol hydrochloride,ibuprofen, combined doses of tramadol hydrochloride and ibuprofen, or vehicle. Each mouse was used only once.
The analysis of possible superadditivity for the compositions at each fixed ratio was determined as disclosed by R. J. Tallarida et al., Life Sci., 45, 947 (1989). This procedure involved the determination of the total amount in the mixture that is required to produce a specified level of effect, such as 50% (ED50mix), and the corresponding total amount that would be expected under simple additivity (ED50add). Where it was established that ED50mix <ED50add for a specific fixed-ratio, then that composition ratio was superadditive. Both the quantities ED50mix and ED50add were random variables; ED50mix was estimated from the dose-response curve for a specific fixed-ratio; ED50add was obtained by combining the ED50 estimates for the two drugs under additivity. ED50mix was then compared to ED50add via a Student's t-test. […]. The interaction between tramadol and ibuprofen was determined at precise dosage ratios of tramadol hydrochloride and ibuprofen. Multiple (typically 4-6) coded doses of each selected combination were studied for analgesic effectiveness after 30 minutes using an experimental design which permitted the complete randomization of the separate dosage forms tested.
In FIG. 1, the diagonal line joining the ED50 values of the two drugs given separately represents the simple additivity of effects at different component ratios. The dotted lines adjacent to the diagonal line define the 95% confidence interval. ED50 values falling under the curve (between the line and the origin) indicate superadditivity, i.e., unexpected enhancement of effects. The diagonal dashed lines radiating from the origin represent the dose ratios of ibuprofen to tramadol hydrochloride used in mice receiving the combined drug dosages. The bars through the ED50 points for the tramadol and ibuprofen composition represent the 95% confidence intervals of the ED50 value. […]

[2] = cited from earlier work; for intensity of pain relieved / tolerance, addiction and toxicity: compared with opioid analgesics; for opioid side effects: Goodman and Gilman's, 8th edition

SMILES: COc1cccc(C2(O)CCCCC2CN(C)C)c1 (single isomer, unassigned) [tramadol, (1R, 2R or 1S, 2S)-2-[(dimethylamino)methyl]-1-(3-methoxyphenyl)cyclohexanol]
- ED50 value for drug alone ([1]; drug alone, oral, 30 min, range in parentheses 95% CI): 5.5(4.8-6.4) mg/kg
- ED50 at 30 min (95% CI's), Tramadol ([1]; p.o., tramadol component (calculated as base), Table I): 5.5 mg/kg

SMILES: CC(=O)Oc1ccccc1C(=O)O [aspirin]
- intensity of pain relieved [2]: only useful in relieving pain of moderate intensity
- tolerance, addiction and toxicity [2]: not subject to the tolerance, addiction and toxicity of the opioid analgesics

SMILES: COc1ccc2c3c1O[C@H]1[C@@H](O)C=C[C@H]4[C@@H](C2)N(C)CC[C@@]341 [codeine]
- opioid side effects [2]: respiratory depression, constipation, tolerance and abuse liability

SMILES: COc1ccc2c3c1O[C@H]1C(=O)CC[C@H]4[C@@H](C2)N(C)CC[C@]314 [hydrocodone]
- opioid side effects [2]: respiratory depression, constipation, tolerance and abuse liability

SMILES: CC(C)Cc1ccc(C(C)C(=O)O)cc1 (stereo not drawn) [ibuprofen, 2-(p-isobutylphenyl)propionic acid]
- ED50 ([1]; Mus musculus, 0.5 h, drug alone, oral, 30 min, range in parentheses 95% CI): 33.5 mg/kg
- analgesia ([1]; tramadol 0, ibuprofen 10 mg/kg, p.o., 30 min): 2/15
- analgesia ([1]; tramadol 0, ibuprofen 20 mg/kg, p.o., 30 min): 4/15
- analgesia ([1]; tramadol 0, ibuprofen 40 mg/kg, p.o., 30 min): 8/15
- analgesia ([1]; tramadol 0, ibuprofen 80 mg/kg, p.o., 30 min): 13/15
- analgesia ([1]; tramadol 0, ibuprofen 160 mg/kg, p.o., 30 min): 14/15
- intensity of pain relieved [2]: only useful in relieving pain of moderate intensity
- tolerance, addiction and toxicity [2]: not subject to the tolerance, addiction and toxicity of the opioid analgesics

SMILES: COc1ccc2c3c1O[C@H]1C(=O)CC[C@@]4(O)[C@@H](C2)N(C)CC[C@]314 [oxycodone]
- opioid side effects [2]: respiratory depression, constipation, tolerance and abuse liability
